Data on 3 compounds can be found in ChEMBL document CHEMBL2321731, “Structure-Based Design of Irreversible Human KAT II Inhibitors: Discovery of New Potency-Enhancing Interactions” (ACS Med Chem Lett, 2013).

The source made the active and inactive calls. The calls are words filed in the database; no cut-off is given here.

The subject of data set [1] is Kynurenine/alpha-aminoadipate aminotransferase, mitochondrial (Homo sapiens), Q8N5Z0 [K240S,F241G]. Description: Binding affinity to C-terminal hexa histidine tagged full length human KAT2 K240S/F241G mutant harboring C-terminal thrombin cleavage site at 1 mM after 2 hrs by X-ray crystallography in presence of 2 mM PLP.
A further data set concerns Rattus norvegicus. In words: Decrease in extracellular KYNA level in Sprague-Dawley rat prefrontal cortex at 10 mg/kg, sc measured for 4 hrs by microdialysis method. The format is functional, organism-based. Also noted: dose 10 mg/kg.
In data set [2] the target is Kynurenine/alpha-aminoadipate aminotransferase, mitochondrial (Rattus norvegicus) (UniProt Q64602). In words: Ratio of Kinact to Ki for rat KAT2 using L-kynurenine as substrate by SpectraMax plate reader analysis.
Sequence of Kynurenine/alpha-aminoadipate aminotransferase, mitochondrial (Rattus norvegicus) (Q64602 30-425 limits assumed): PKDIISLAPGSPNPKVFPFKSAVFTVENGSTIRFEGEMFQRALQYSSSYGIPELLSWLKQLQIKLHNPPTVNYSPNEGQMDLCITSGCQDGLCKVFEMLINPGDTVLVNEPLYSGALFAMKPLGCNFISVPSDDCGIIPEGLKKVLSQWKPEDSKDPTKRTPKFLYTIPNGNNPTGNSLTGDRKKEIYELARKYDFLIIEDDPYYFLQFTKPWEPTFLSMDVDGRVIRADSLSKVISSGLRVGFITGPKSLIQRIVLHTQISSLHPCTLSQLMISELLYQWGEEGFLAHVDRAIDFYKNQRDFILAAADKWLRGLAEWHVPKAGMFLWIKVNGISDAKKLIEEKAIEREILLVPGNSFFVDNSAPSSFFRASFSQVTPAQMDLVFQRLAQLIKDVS
The nature of data set [3]: Unbound fraction in Sprague-Dawley rat brain at 10 mg/kg, sc by equilibrium dialysis method. Also noted: dose 10 mg/kg, route subcutaneous. The class given is ADME, organism-based. (In general: Equilibrium dialysis compares concentrations on both sides of a semipermeable membrane.)
Data set [4] deals with Brain. Description: fAUC in Sprague-Dawley rat brain at 10 mg/kg, sc by equilibrium dialysis method. The class given is ADME, organism-based. Also noted: dose 10 mg/kg, route subcutaneous. The conditions noted are these: in vivo.
The target of data set [5] is Kynurenine--oxoglutarate transaminase 3 (Homo sapiens, UniProt Q6YP21). Description: Inhibition of human KAT3 using L-kynurenine as substrate measured after 24 hrs by SpectraMax plate reader analysis.
Sequence of Kynurenine--oxoglutarate transaminase 3 (Q6YP21 whole entry): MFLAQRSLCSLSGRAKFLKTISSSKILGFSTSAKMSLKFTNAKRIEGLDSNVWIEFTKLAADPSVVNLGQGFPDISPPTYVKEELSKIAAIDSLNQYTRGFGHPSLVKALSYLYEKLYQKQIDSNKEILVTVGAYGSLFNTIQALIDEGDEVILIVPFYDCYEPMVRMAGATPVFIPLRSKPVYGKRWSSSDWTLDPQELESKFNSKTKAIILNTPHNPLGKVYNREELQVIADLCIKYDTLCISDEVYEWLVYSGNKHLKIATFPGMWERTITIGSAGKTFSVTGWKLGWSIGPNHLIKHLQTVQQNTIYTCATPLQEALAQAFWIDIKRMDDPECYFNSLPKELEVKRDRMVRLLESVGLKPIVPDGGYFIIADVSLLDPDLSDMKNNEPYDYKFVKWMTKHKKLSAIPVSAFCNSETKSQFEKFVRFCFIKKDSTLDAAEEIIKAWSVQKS
The test system of data set [6] is Brain. Description: AUC in Sprague-Dawley rat brain at 10 mg/kg, sc by LC-MS/MS analysis. The conditions noted are these: in vivo. Also noted: dose 10 mg/kg, route subcutaneous. The class given is ADME, organism-based.
Data set [7] addresses T1, Kynurenine/alpha-aminoadipate aminotransferase, mitochondrial (Homo sapiens, UniProt Q8N5Z0). Description: Ratio of Kinact to Ki for human KAT2 using L-kynurenine as substrate by SpectraMax plate reader analysis.
Target sequence in this assay (Q8N5Z0 30-425 limits assumed): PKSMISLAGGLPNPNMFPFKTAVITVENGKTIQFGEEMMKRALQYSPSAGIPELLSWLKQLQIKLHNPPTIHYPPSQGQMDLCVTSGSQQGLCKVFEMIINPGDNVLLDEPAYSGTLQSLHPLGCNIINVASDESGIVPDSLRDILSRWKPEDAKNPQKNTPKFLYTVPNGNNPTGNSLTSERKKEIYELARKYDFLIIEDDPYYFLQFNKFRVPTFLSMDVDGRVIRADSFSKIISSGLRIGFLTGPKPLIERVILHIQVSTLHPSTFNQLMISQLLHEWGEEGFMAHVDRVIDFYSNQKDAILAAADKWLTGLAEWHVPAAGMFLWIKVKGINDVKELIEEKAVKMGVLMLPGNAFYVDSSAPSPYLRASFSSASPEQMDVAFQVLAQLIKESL
Data set [8] deals with T2, Kynurenine--oxoglutarate transaminase 1 (Homo sapiens, UniProt Q16773).
T2 sequence (Q16773 whole entry): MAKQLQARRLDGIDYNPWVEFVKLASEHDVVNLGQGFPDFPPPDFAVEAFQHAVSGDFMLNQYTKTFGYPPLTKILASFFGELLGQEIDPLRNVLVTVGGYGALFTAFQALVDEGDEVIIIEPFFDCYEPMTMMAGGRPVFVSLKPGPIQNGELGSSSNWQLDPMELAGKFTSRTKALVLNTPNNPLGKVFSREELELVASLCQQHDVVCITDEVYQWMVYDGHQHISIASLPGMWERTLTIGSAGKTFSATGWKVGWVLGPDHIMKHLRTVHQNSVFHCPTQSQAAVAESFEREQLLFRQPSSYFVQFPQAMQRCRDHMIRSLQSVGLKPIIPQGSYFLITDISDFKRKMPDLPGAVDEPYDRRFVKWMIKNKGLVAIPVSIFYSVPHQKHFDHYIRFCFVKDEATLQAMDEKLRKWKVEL
Description: Inhibition of human KAT1 using L-kynurenine as substrate measured after 16 hrs by SpectraMax plate reader analysis.

Data set [9] deals with T1, Kynurenine/alpha-aminoadipate aminotransferase, mitochondrial. Description: Irreversible inhibition of human KAT2 using L-kynurenine as substrate measured every 5 mins over 16 hrs by SpectraMax plate reader analysis.
For data set [10], the system named is Brain. Description: Ratio of hydroxamate fAUC to compound fAUC in Sprague-Dawley rat brain at 10 mg/kg, sc by equilibrium dialysis method. The format is ADME, organism-based. Also noted: dose 10 mg/kg, route subcutaneous. Conditions: in vivo.
Data set [11] deals with T1, Kynurenine/alpha-aminoadipate aminotransferase, mitochondrial. In words: Inhibition of human KAT2 using L-kynurenine as substrate measured after 15-20 hrs by SpectraMax plate reader analysis.
Target sequence in this assay (Q8N5Z0 whole entry): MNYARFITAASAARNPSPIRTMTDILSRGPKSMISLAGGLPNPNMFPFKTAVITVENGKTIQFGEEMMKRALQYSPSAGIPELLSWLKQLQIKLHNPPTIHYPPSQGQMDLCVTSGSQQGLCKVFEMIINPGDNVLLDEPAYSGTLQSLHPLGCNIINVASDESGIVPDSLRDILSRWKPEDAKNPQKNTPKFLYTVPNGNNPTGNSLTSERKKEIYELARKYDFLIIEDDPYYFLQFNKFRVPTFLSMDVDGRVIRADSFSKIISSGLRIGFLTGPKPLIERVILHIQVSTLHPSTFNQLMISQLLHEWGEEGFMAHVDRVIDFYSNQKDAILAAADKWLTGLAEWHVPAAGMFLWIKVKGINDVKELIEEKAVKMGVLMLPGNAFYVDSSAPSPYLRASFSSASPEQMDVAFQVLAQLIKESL

Sequence of Kynurenine/alpha-aminoadipate aminotransferase, mitochondrial (Homo sapiens), Q8N5Z0 [K240S,F241G] (Q8N5Z0 whole entry K240S/F241G): as the sequence (Q8N5Z0 whole entry) above, with K240S, F241G counted along it

As to `N[C@H]1Cc2ccccc2N(O)C1=O`, in [1], the outcome was Active. Moreover, the inhibition result in the data set on Rattus norvegicus is “Active”. For the same compound, the Ratio in [2] stood at 573; in [7], 18500. For the same compound, the fraction unbound in data set [3] came out at 0.393. In the data set on Brain [4], this compound showed a fAUC of 584 ng·h/g. For the same compound, the IC50 in [5] was 9040 nM; in data set [8], 30400 nM. Moreover, the AUC in the data set with Brain [6] was found to be 1486 ng·h/g. The compound further showed a Ki in [9] of 14.2 nM. In [9], the Kinact came out at 0.0156 min⁻¹.

In the case of `N[C@H]1Cc2cc(Oc3ccccc3)ccc2N(O)C1=O`, the outcome in data set [1] was Active. Moreover, in the data set with Rattus norvegicus, the inhibition entry was “Active”. Besides, the Ratio in data set [2] is 9070; in the data set on Brain [10], 9; in [7], 26800. The same compound registered a fraction unbound in data set [3] of 0.0099. Moreover, the fAUC in the data set on Brain [4] was 65 ng·h/g. The IC50 in [5] amounted to 1230 nM; in data set [8], 2040 nM; in data set [11] it was 23 nM. This compound also gave an AUC in the data set with Brain [6] of 6602 ng·h/g. The same compound yielded a Ki in data set [9] of 7.1 nM. This compound came in with a Kinact in data set [9] of 0.0108 min⁻¹.

As for `COc1ccc2c(c1)N(O)C(=O)[C@@H](N)C2`, in data set [1], the result was Active. The Ratio in [2] was 1840; in data set [7], 31700. In addition, the IC50 turned out to be 6400 nM in data set [5] and 15300 nM in data set [8]. The compound further showed a Ki in data set [9] of 7.7 nM. Further, the Kinact in [9] stood at 0.0137 min⁻¹.

A word on the fraction unbound: it is free concentration divided by total concentration. Low values mean little free substance, high ones much free substance. In general, IC50 refers to the concentration at which inhibition is half-maximal. A high value points to lower potency.
